Measurements published in the NIST ThermoML archive (doi:10.1021/je0201119).

Assay: xn = mol fraction of the nth substance listed
Details: 92 kPa, Liquid; for mass density: Vibrating tube method

CC(C)(N)CO [2-amino-2-methylpropan-1-ol] + O
Details	mass density [kg/m3]	viscosity [mPa·s]
298.15 K, x1 = 0.0503	996.94	2.32
298.15 K, x1 = 0.0704	997.22	3.23
298.15 K, x1 = 0.1005	997.05	5.01
298.15 K, x1 = 0.2006	989.06	14.82
298.15 K, x1 = 0.2939	978.77	22.7
298.15 K, x1 = 0.4075	967.43	51.5
298.15 K, x1 = 0.4982	959.61	76.8
298.15 K, x1 = 0.5996	952.01	102.5
298.15 K, x1 = 0.7028	945.34	124.3
298.15 K, x1 = 0.8016	939.53	140.7
298.15 K, x1 = 0.9001	934.8	149.1
303.15 K, x1 = 0.0503	994.7	1.98
303.15 K, x1 = 0.0704	994.6	2.67
303.15 K, x1 = 0.1005	993.88	4.05
303.15 K, x1 = 0.2006	985.15	11.32
303.15 K, x1 = 0.2939	974.76	16.96
303.15 K, x1 = 0.4075	963.43	36.9
303.15 K, x1 = 0.4982	955.61	54.3
303.15 K, x1 = 0.5996	948	70.3
303.15 K, x1 = 0.7028	941.38	84
303.15 K, x1 = 0.8016	935.53	94
303.15 K, x1 = 0.9001	930.7	98.9
313.15 K, x1 = 0.0503	989.66	1.608
313.15 K, x1 = 0.0704	988.95	1.931
313.15 K, x1 = 0.1005	987.5	2.79
313.15 K, x1 = 0.2006	977.24	7
313.15 K, x1 = 0.2939	966.67	12.51
313.15 K, x1 = 0.4075	955.29	20.37
313.15 K, x1 = 0.4982	947.43	28.7
313.15 K, x1 = 0.5996	939.82	36.1
313.15 K, x1 = 0.7028	933.1	42.5
313.15 K, x1 = 0.8016	927.27	46.2
313.15 K, x1 = 0.9001	923.35	47.9
313.15 K, x1 = 1	919.65	47.8
323.15 K, x1 = 0.0503	984.18	1.244
323.15 K, x1 = 0.0704	982.83	1.466
323.15 K, x1 = 0.1005	980.6	2.03
323.15 K, x1 = 0.2006	969.17	4.66
323.15 K, x1 = 0.2939	958.38	7.85
323.15 K, x1 = 0.4075	946.98	12.17
323.15 K, x1 = 0.4982	939.08	16.26
323.15 K, x1 = 0.5996	931.58	20
323.15 K, x1 = 0.7028	924.7	22.7
323.15 K, x1 = 0.8016	918.85	24.6
323.15 K, x1 = 0.9001	914.78	25.3
323.15 K, x1 = 1	911.24	25.1
333.15 K, x1 = 0.0503	978.15	0.931
333.15 K, x1 = 0.0704	976.26	1.154
333.15 K, x1 = 0.1005	973.43	1.55
333.15 K, x1 = 0.2006	960.92	3.27
333.15 K, x1 = 0.2939	949.92	5.23
333.15 K, x1 = 0.4075	938.48	7.63
333.15 K, x1 = 0.4982	930.56	10
333.15 K, x1 = 0.5996	923.08	11.97
333.15 K, x1 = 0.7028	915.97	13.33
333.15 K, x1 = 0.8016	910.36	14.22
333.15 K, x1 = 0.9001	906.31	14.53
333.15 K, x1 = 1	902.87	14.4
343.15 K, x1 = 0.0503	971.66	0.826
343.15 K, x1 = 0.0704	969.29	0.933
343.15 K, x1 = 0.1005	965.83	1.21
343.15 K, x1 = 0.2006	952.44	2.4
343.15 K, x1 = 0.2939	941.28	3.67
343.15 K, x1 = 0.4075	930	4.94
343.15 K, x1 = 0.4982	921.85	6.43
343.15 K, x1 = 0.5996	914.39	7.5
343.15 K, x1 = 0.7028	907	8.23
343.15 K, x1 = 0.8016	901.65	8.88
343.15 K, x1 = 0.9001	897.77	8.98
343.15 K, x1 = 1	894.28	8.91
